Data from ChEMBL document CHEMBL3885881, “DrugMatrix”.

Species: Rattus norvegicus
Experiment: DrugMatrix - Regimen: Daily Repeat
Format: toxicity, organism-based, Sprague-Dawley
Design: regimen Daily Repeat, gender Male, age 6-8 weeks
Settings: in vivo, po, route oral GAVAGE, vehicle .5 % CMC; for ABSOLUTE BASOPHIL / ABSOLUTE EOSINOPHIL / ABSOLUTE LYMPHOCYTE / ABSOLUTE MONOCYTE / ABSOLUTE SEGMENTED NEUTROPHIL / BASOPHIL / EOSINOPHIL / ERYTHROCYTE COUNT / HEMATOCRIT / HEMOGLOBIN / LEUKOCYTE COUNT / LYMPHOCYTE / MEAN CORPUSCULAR HEMOGLOBIN / MEAN CORPUSCULAR HEMOGLOBIN CONCENTRATION / MEAN CORPUSCULAR VOLUME / MONOCYTE / NEUTROPHIL / NUCLEATED RED BLOOD CELLS / PLATELET COUNT: tissue Blood; for ALANINE AMINOTRANSFERASE / ALBUMIN / ALKALINE PHOSPHATASE / ASPARTATE AMINOTRANSFERASE / BLOOD UREA NITROGEN / CARBON DIOXIDE / CHLORIDE / CHOLESTEROL / CREATINE PHOSPHOKINASE / CREATININE / GLUCOSE / LACTATE DEHYDROGENASE / LIPASE / PHOSPHORUS / POTASSIUM / SODIUM / TOTAL BILIRUBIN / TOTAL PROTEIN / URIC ACID: tissue Plasma
[1] = 0 mg/kg, 72 h, dose level Control, time 3 day
[2] = 0 mg/kg, 120 h, dose level Control, time 5 day
[3] = 10 mg/kg, 72 h, dose level Low, time 3 day

## CCOC(=O)[C@H](CCc1ccccc1)N[C@@H](C)C(=O)N1Cc2ccccc2C[C@H]1C(=O)O
[1]
  ABSOLUTE BASOPHIL: 0 CELLS/uL
  ABSOLUTE EOSINOPHIL: 0 CELLS/uL
  ABSOLUTE LYMPHOCYTE: 12191.17 CELLS/uL
  ABSOLUTE MONOCYTE: 183.17 CELLS/uL
  ABSOLUTE SEGMENTED NEUTROPHIL: 1192.33 CELLS/uL
  BASOPHIL: 0%
  EOSINOPHIL: 0%
  ERYTHROCYTE COUNT: 5.51 x10E6/uL
  HEMATOCRIT: 35.45%
  HEMOGLOBIN: 13.82 G/DL
  LEUKOCYTE COUNT: 13.57 x10E3/uL
  LYMPHOCYTE: 89.83%
  MEAN CORPUSCULAR HEMOGLOBIN: 25.1 pg
  MEAN CORPUSCULAR HEMOGLOBIN CONCENTRATION: 38.98 G/DL
  MEAN CORPUSCULAR VOLUME: 64.42 fL
  MONOCYTE: 1.33%
  NEUTROPHIL: 8.83%
  NUCLEATED RED BLOOD CELLS: 0 /100WBC
  PLATELET COUNT: 1118.17 x10E3/uL
  ALANINE AMINOTRANSFERASE: 55 u/L
  ALBUMIN: 4.15 G/DL
  ALKALINE PHOSPHATASE: 449.5 u/L
  ASPARTATE AMINOTRANSFERASE: 112.83 u/L
  BLOOD UREA NITROGEN: 17.33 mg/dL
  CARBON DIOXIDE: 29.5 mmol/L
  CHLORIDE: 101 MEQ/L
  CHOLESTEROL: 70 mg/dL
  CREATINE PHOSPHOKINASE: 1325.83 u/L
  CREATININE: 0.18 mg/dL
  GLUCOSE: 171.5 mg/dL
  LACTATE DEHYDROGENASE: 386 u/L
  LIPASE: 10 u/L
  PHOSPHORUS: 11.57 mg/dL
  POTASSIUM: 6.21 MEQ/L
  SODIUM: 141.65 MEQ/L
  TOTAL BILIRUBIN: 0.15 mg/dL
  TOTAL PROTEIN: 5.75 G/DL
  URIC ACID: 1.28 mg/dL
[2]
  ABSOLUTE BASOPHIL: 0 CELLS/uL
  ABSOLUTE EOSINOPHIL: 138.17 CELLS/uL
  ABSOLUTE LYMPHOCYTE: 13283.17 CELLS/uL
  ABSOLUTE MONOCYTE: 303.83 CELLS/uL
  ABSOLUTE SEGMENTED NEUTROPHIL: 1308.17 CELLS/uL
  BASOPHIL: 0%
  EOSINOPHIL: 1%
  ERYTHROCYTE COUNT: 5.32 x10E6/uL
  HEMATOCRIT: 33.8%
  HEMOGLOBIN: 13.63 G/DL
  LEUKOCYTE COUNT: 15.03 x10E3/uL
  LYMPHOCYTE: 88.33%
  MEAN CORPUSCULAR HEMOGLOBIN: 25.68 pg
  MEAN CORPUSCULAR HEMOGLOBIN CONCENTRATION: 40.35 G/DL
  MEAN CORPUSCULAR VOLUME: 63.67 fL
  MONOCYTE: 1.83%
  NEUTROPHIL: 8.83%
  NUCLEATED RED BLOOD CELLS: 0 /100WBC
  PLATELET COUNT: 1097.5 x10E3/uL
  ALANINE AMINOTRANSFERASE: 54.5 u/L
  ALBUMIN: 4.27 G/DL
  ALKALINE PHOSPHATASE: 337 u/L
  ASPARTATE AMINOTRANSFERASE: 94.67 u/L
  BLOOD UREA NITROGEN: 17 mg/dL
  CARBON DIOXIDE: 28.33 mmol/L
  CHLORIDE: 101.5 MEQ/L
  CHOLESTEROL: 71.33 mg/dL
  CREATINE PHOSPHOKINASE: 628.17 u/L
  CREATININE: 0.19 mg/dL
  GLUCOSE: 177.83 mg/dL
  LACTATE DEHYDROGENASE: 500.5 u/L
  LIPASE: 9.5 u/L
  PHOSPHORUS: 12.3 mg/dL
  POTASSIUM: 5.63 MEQ/L
  SODIUM: 143.03 MEQ/L
  TOTAL BILIRUBIN: 0.2 mg/dL
  TOTAL PROTEIN: 6.02 G/DL
  URIC ACID: 1.5 mg/dL
[3]
  ABSOLUTE BASOPHIL: 0 CELLS/uL
  ABSOLUTE EOSINOPHIL: 39 CELLS/uL
  ABSOLUTE LYMPHOCYTE: 11213 CELLS/uL
  ABSOLUTE MONOCYTE: 0 CELLS/uL
  ABSOLUTE SEGMENTED NEUTROPHIL: 1148 CELLS/uL
  BASOPHIL: 0%
  EOSINOPHIL: 0.33%
  ERYTHROCYTE COUNT: 5.3 x10E6/uL
  HEMATOCRIT: 34.07%
  HEMOGLOBIN: 13.93 G/DL
  LEUKOCYTE COUNT: 12.4 x10E3/uL
  LYMPHOCYTE: 90.33%
  MEAN CORPUSCULAR HEMOGLOBIN: 26.33 pg
  MEAN CORPUSCULAR HEMOGLOBIN CONCENTRATION: 40.9 G/DL
  MEAN CORPUSCULAR VOLUME: 64.37 fL
  MONOCYTE: 0%
  NEUTROPHIL: 9.33%
  NUCLEATED RED BLOOD CELLS: 0 /100WBC
  PLATELET COUNT: 1446.33 x10E3/uL
